In patent publication US20050250819A1 (priority 2004, published 2005):
pIC50: −log10 of the molar value.

The compounds below were run on Type III-dependent secretion of ExoU by P. aeruginosa PA103 (assay: Tertiary assay: Type III-dependent secretion of ExoU by P. aeruginosa PA103). Settings: Pseudomonas aeruginosa, ExoU secreted into extracellular medium.
Format: cell-based
From the text: Tertiary assay: inhibition of Type III protein secretion of effectors from a Pseudomonas aeruginosa system. Type III protein secretion is used by P. aeruginosa to secrete several essential virulence determinants. One effector of the type III protein secretion system of P. aeruginosa PA103 is the virulence determinants ExoU.
The amount of Type III-dependent secretion of ExoU by P. aeruginosa PA103 can be determined in a cell-based assay by quantification of the 73.9 kDa ExoU protein secreted into the extracellular medium. Such quantitation can be achieved by growing strain PA103 in a deferrated medium in the presence of nitrilotriacetic acid (an inducer of Type III protein secretion in P. aeruginosa) and either in the presence or absence of putative inhibitors. After a prolonged growth period, the cells are sedimented and the supernatants concentrated by ammonium sulfate precipitation. The proteins in the resuspended pellets are separated by electrophoresis on SDS-polyacrylamide gels. After staining gels with Colloidal Blue™, the 73.9 kDa ExoU band is quantitated by scanning through an imager. The effects of inhibitors on the intensity of the ExoU band may be measured relative to that of untreated controls.
`O=C(N[C@@H](CSCc1ccccc1)C(=O)O)/C(=C\c1ccc(-c2ccccc2)cc1)NC(=O)c1ccc(C(F)(F)F)cc1` [Compound 121] was tested, and the pIC50 was 4.60. `O=C(N[C@H](COCc1ccccc1)C(=O)O)/C(=C\c1ccc(Cl)c(Cl)c1)NC(=O)c1ccc(-c2ccccc2)cc1` [Compound 56, (R)-3-Benzyloxy-2-[2-[(biphenyl-4-carbonyl)amino]-3-(3,4-dichlorophenyl)-acryloylamino]propionic acid] was tested, and the pIC50 was 4.69. With `CN(C(=O)/C(=C\c1cccc(C(F)(F)F)c1)NC(=O)c1ccc(-c2ccccc2)cc1)C(COCc1ccccc1)C(=O)O` (stereo not drawn) [Compound 53, 3-Benzyloxy-2-{[2-[(biphenyl-4-carbonyl)amino]-3-(3-trifluoromethylphenyl)-acryloyl]methylamino}propionic acid] the pIC50 was 4.34. `O=C(N[C@@H](CSCc1ccccc1)C(=O)O)/C(=C\c1ccc(Oc2ccccc2)cc1)NC(=O)c1ccc(Cl)cc1` [Compound 44, (R)-3-Benzylsulfanyl-2-[2-(4-chlorobenzoylamino)-3-(4-phenoxyphenyl)-acryloylamino]propionic acid] gave a pIC50 of 4.58. Compound `O=C(N[C@@H](CSCc1ccccc1)C(=O)O)/C(=C\c1cccc(C(F)(F)F)c1)NC(=O)C1CCN(c2nccc(C(F)(F)F)n2)CC1` [Compound 78, (R)-3-Benzylsulfanyl-2-(3-(3-trifluoromethylphenyl)-2-{[1-(4-trifluoromethylpyrimidin-2-yl)piperidine-4-carbonyl]amino}acryloylamino)propionic acid] has a pIC50 of 4.17. Compound `O=C(N[C@@H](CSCc1ccccc1)C(=O)O)/C(=C\c1ccc(Cl)c(Cl)c1)NC(=O)c1ccc(-c2ccccc2)cc1` [Compound 105] has a pIC50 of 4.48. In the case of `O=C(NC(Cc1ccc(F)cc1)C(=O)O)/C(=C\c1ccc(-c2ccccc2)cc1)NC(=O)c1ccc(C(F)(F)F)cc1` (stereo not drawn) [Compound 54, 2-[3-Biphenyl-4-yl-2-(4-trifluoromethylbenzoylamino)acryloylamino]-3-(4-fluoro-phenyl)propionic acid], the pIC50 was 4.72. Compound `O=C(NC(Cc1ccc(Cl)cc1)C(=O)O)/C(=C\c1ccc(-c2ccccc2)cc1)NC(=O)c1ccc(C(F)(F)F)cc1` (stereo not drawn) [Compound 55, 2-[3-Biphenyl-4-yl-2-(4-trifluoromethylbenzoylamino)acryloylamino]-3-(4-chloro-phenyl)propionic acid] has a pIC50 of 4.89. Work on `O=C(N[C@@H](CSCc1ccccc1)C(=O)O)/C(=C\c1ccc(Oc2ccccc2)cc1)NC(=O)c1ccc(C(F)(F)F)cc1` [Compound 17, (R)-3-Benzylsulfanyl-2-[3-(4-phenoxyphenyl)-2-(4-trifluoromethylbenzoylamino)-acryloylamino]propionic acid] yielded a pIC50 of 4.31. With `O=C(N[C@@H](COCc1ccccc1)C(=O)O)/C(=C\c1ccc(-c2ccccc2)cc1)NC(=O)c1ccc(C(F)(F)F)cc1` [Compound 23, (S)-3-Benzyloxy-2-[3-biphenyl-4-yl-2-(4-trifluoromethylbenzoylamino)-acryloylamino]propionic acid] the pIC50 was 4.54. Compound `O=C(N[C@@H](CSCc1ccccc1)C(=O)O)/C(=C\c1cccc(OCc2ccccc2)c1)NC(=O)c1ccc(C(F)(F)F)cc1` [Compound 18, (R)-2-[3-(3-Benzyloxyphenyl)-2-(4-trifluoromethylbenzoylamino)acryloylamino]-3-benzylsulfanylpropionic acid] has a pIC50 of 4.24. With `O=C(NC(COCc1ccccc1)C(=O)O)/C(=C\c1ccc(Cl)c(Cl)c1)NC(=O)c1ccc(-c2ccccc2)cc1` (stereo not drawn) [Compound 106] the pIC50 was 4.70. Work on `O=C(N[C@H](CSCc1ccccc1)C(=O)O)/C(=C\c1ccc(-c2ccccc2)cc1)NC(=O)c1ccc(C(F)(F)F)cc1` [Compound 6, (S)-3-Benzylsulfanyl-2-[3-biphenyl-4-yl-2-(4-trifluoromethylbenzoylamino)-acryloylamino]propionic acid] yielded a pIC50 of 4.33. `O=C(NC(CCSCc1ccccc1)C(=O)O)/C(=C\c1cccc(C(F)(F)F)c1)NC(=O)c1ccc(-c2ccccc2)cc1` (stereo not drawn) [Compound 98] was tested, and the pIC50 was 4.89.

These compounds were tested on Type III protein secretion of the chimeric SopE‘-’Bla polypeptide (SPI1 type III protein secretion system) (assay: Primary assay: Type III protein secretion of the chimeric SopE'-'Bla polypeptide by Salmonella enterica). Settings: read-out: SopE IC50(μM).
Format: cell-based
From the text: Primary assay: Type III protein secretion of the chimeric SopE‘-’Bla polypeptide by Salmonella enterica. This procedure is a cell-based assay that measures the type III-dependent secretion by Salmonella enterica of a plasmid-encoded chimeric polypeptide whose synthesis can be regulated, and which is endowed with an enzymatic activity that can be monitored colorimetrically by hydrolysis of a substrate that is unable to penetrate into the bacterial cytoplasm within the time constraints of the reaction. Thus, the colormetric reaction is not influenced by SopE‘-’Bla polypeptide in the bacterial cytplasm. Instead, it effectively measures the amount of polypeptide that has been secreted from the S. enterica cytoplasm to the extracellular medium via type III system protein secretion.
The SopE‘-’Bla recombinant polypeptide consists of two functionally distinct domains spliced together. The N-terminus domain is encoded by a polynucleotide region specifying the signal for type III secretion of the SopE polypeptide of S. enterica, an effector of the SPI1 type III protein secretion system. The C-terminus domain of SopE‘-’Bla consists of a 263 amino acid peptide sequence that corresponds to the TEM-1 β-lactamase expressed by plasmid pBR322 but without its N-terminal signal sequence. The TEM-1 β-lactamase part of the SopE‘-’Bla chimeric polypeptide is used as a reporter enzyme. It is capable of hydrolyzing nitrocefin resulting in a product whose accumulation can be monitored by colorimetric detection. The secretion of the SopE‘-’Bla chimeric polypeptide from the cytoplasm to the extracellular medium is dependent on type III protein secretion.
For this procedure, cells grown under conditions known to favor a functional SPI1 secretion system are induced for expression of the SopE‘-’Bla protein and grown either in the presence or in the absence of putative inhibitors for determined time. Nitrocefin is then added to the various cultures and its hydrolysis are used for quantitation. An inhibitor of Type III protein secretion is generally a compound that reduces the signal of the enzymatic reaction by decreasing the amount of SopE‘-’Bla secreted into the extracellular medium.
`O=C(N[C@@H](CSCc1ccccc1)C(=O)O)/C(=C\c1ccc2ccccc2c1)NC(=O)c1ccc(Br)cc1` [Compound 45, (R)-3-Benzylsulfanyl-2-[2-(4-bromobenzoylamino)-3-naphthalen-2-yl-acryloylamino]propionic acid] gave an IC50 of 81.6 µM. With `CC(C)(S)C(NC(=O)/C(=C\c1ccc(-c2ccccc2)cc1)NC(=O)c1ccc(-c2ccccc2)cc1)C(=O)O` (stereo not drawn) [Compound 126] the IC50 was 3 µM. With `O=C(NN(Cc1ccc(OC(F)(F)F)cc1)C(=O)N[C@@H](CSCc1ccccc1)C(=O)O)c1ccc(C(F)(F)F)cc1` [Compound 11, 4-Trifluoromethylbenzoic acid-N′-[(4-trifluoromethoxyphenyl)methyl]-N′-[[[(2-benzylthio)-1-carboxyethyl]amino]carbonyl]hydrazide] the IC50 was 49 µM. In the case of `NC(=O)C[C@@H](NC(=O)/C(=C\c1ccc(Cl)c(Cl)c1)NC(=O)c1ccc(-c2ccccc2)cc1)C(=O)O` [Compound 112], the IC50 was 16.6 µM. For `CC(C)c1ccc(/C=C(/NC(=O)c2ccc(C(F)(F)F)cc2)C(=O)N[C@@H](COCc2ccccc2)C(=O)O)cc1` [Compound 32, (S)-3-Benzyloxy-2-[3-(4-isopropylphenyl)-2-(4-trifluoromethylbenzoylamino)-acryloylamino]propionic acid], the IC50 was 34.8 µM. `O=C(N[C@@H](Cc1ccc(Cl)cc1)C(=O)O)/C(=C\c1ccc(-c2ccccc2)cc1)NC(=O)c1ccc(C(F)(F)F)cc1` [Compound 25, (S)-2-[3-Biphenyl-4-yl-2-(4-trifluoromethylbenzoylamino)acryloylamino]-3-(4-chlorophenyl)propionic acid] gave an IC50 of 6 µM. For `O=C(N[C@H](COCc1ccccc1)C(=O)O)/C(=C\c1ccc(Cl)c(Cl)c1)NC(=O)C1CCN(c2nccc(C(F)(F)F)n2)CC1` [Compound 73, (R)-3-Benzyloxy-2-(3-(3,4-dichlorophenyl)-2-{[1-(4-trifluoromethylpyrimidin-2-yl)-piperidine-4-carbonyl]amino}acryloylamino)propionic acid], the IC50 was 12.8 µM. `O=C(N[C@@H](Cc1ccc(Cl)cc1)C(=O)O)/C(=C\c1cccc(C(F)(F)F)c1)NC(=O)c1ccc(OC(F)(F)F)cc1` [Compound 37, (S)-3-(4-Chlorophenyl)-2-[2-(4-trifluoromethoxybenzoylamino)-3-(3-trifluoromethylphenyl)acryloylamino]propionic acid] gave an IC50 of 25 µM. `O=C(N[C@@H](CSCc1ccccc1)C(=O)O)C(=Cc1ccc2ccccc2c1)NC(=O)c1ccc(I)cc1` [Compound 46, (R)-3-Benzylsulfanyl-2-[2-(4-iodobenzoylamino)-3-naphthalen-2-yl-acryloylamino]propionic acid] was tested, and the IC50 was 28.6 µM. `O=C(N[C@H](Cc1ccc(Cl)cc1)C(=O)O)/C(=C\c1cccc(C(F)(F)F)c1)NC(=O)c1ccc(OC(F)(F)F)cc1` [Compound 36, (R)-3-(4-Chlorophenyl)-2-[2-(4-trifluoromethoxybenzoylamino)-3-(3-trifluoromethylphenyl)acryloylamino]propionic acid] gave an IC50 of 21.6 µM. Compound `O=C(NN(Cc1ccc(-c2ccccc2)cc1)C(=O)N[C@@H](CSCc1ccccc1)C(=O)O)c1ccc(C(F)(F)F)cc1` [Compound 8, 4-Trifluoromethylbenzoic acid-N′-[(biphenyl-4-yl)methyl]-N′-[[[(2-benzylthio)-1-carboxyethyl]amino]carbonyl]hydrazide] has an IC50 of 10 µM. With `O=C(N[C@@H](CSCc1ccccc1)C(=O)O)/C(=C\c1ccc(Br)cc1)NC(=O)c1ccc(C(F)(F)F)cc1` [Compound 41, (R)-3-Benzylsulfanyl-2-[3-(4-bromophenyl)-2-(4-trifluoromethylbenzoylamino)-acryloylamino]propionic acid] the IC50 was 48 µM. With `O=C(N[C@@H](Cc1ccc(Cl)cc1)C(=O)O)/C(=C\c1cccc(C(F)(F)F)c1)NC(=O)c1cc2ccccc2o1` [Compound 69, (S)-2-[2-[(Benzofuran-2-carbonyl)amino]-3-(3-trifluoromethylphenyl)acryloylamino]-3-(4-chlorophenyl)propionic acid] the IC50 was 28.5 µM.
